# Laboratory results from PubChem BioAssay (NCI).
#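 Cultured in 96-well plates, cells were exposed to test compound for 48 hours across five concentrations. At the GI50, growth is halved. The concentration for full growth arrest is given as TGI.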
# How the values were obtained:
# Experiment in all cases: NCI tumour cell line growth inhibition, 48 h
# 786-0 renal = tested on: 786-0 renal
# A498 renal = tested on: A498 renal
# A549 NSCLC = tested on: A549 NSCLC
# ACHN renal = tested on: ACHN renal
# BT-549 breast = tested on: BT-549 breast
# CAKI-1 renal = tested on: CAKI-1 renal
# CCRF-CEM leukemia = tested on: CCRF-CEM leukemia
# COLO 205 colon = tested on: COLO 205 colon
# DU-145 prostate = tested on: DU-145 prostate
# EKVX NSCLC = tested on: EKVX NSCLC
# HCT-15 colon = tested on: HCT-15 colon
# HOP-62 NSCLC = tested on: HOP-62 NSCLC
# HOP-92 NSCLC = tested on: HOP-92 NSCLC
# HS 578T breast = tested on: HS 578T breast
# HT29 colon = tested on: HT29 colon
# IGROV1 ovarian = tested on: IGROV1 ovarian
# KM12 colon = tested on: KM12 colon
# LOX IMVI melanoma = tested on: LOX IMVI melanoma
# M14 melanoma = tested on: M14 melanoma
# MALME-3M melanoma = tested on: MALME-3M melanoma
# MCF7 breast = tested on: MCF7 breast
# MDA-MB-231 breast = tested on: MDA-MB-231 breast
# MDA-MB-435 = tested on: MDA-MB-435
# MDA-N = tested on: MDA-N
# MOLT-4 leukemia = tested on: MOLT-4 leukemia
# NCI-H226 lung = tested on: NCI-H226 lung
# NCI-H23 lung = tested on: NCI-H23 lung
# NCI-H460 lung = tested on: NCI-H460 lung
# NCI-H522 lung = tested on: NCI-H522 lung
# NCI/ADR-RES ovarian = tested on: NCI/ADR-RES ovarian
# OVCAR-3 ovarian = tested on: OVCAR-3 ovarian
# OVCAR-4 ovarian = tested on: OVCAR-4 ovarian
# OVCAR-5 ovarian = tested on: OVCAR-5 ovarian
# PC-3 prostate = tested on: PC-3 prostate
# RXF 393 renal = tested on: RXF 393 renal
# SF-268 CNS = tested on: SF-268 CNS
# SF-295 CNS = tested on: SF-295 CNS
# SF-539 CNS = tested on: SF-539 CNS
# SK-MEL-2 melanoma = tested on: SK-MEL-2 melanoma
# SK-MEL-28 melanoma = tested on: SK-MEL-28 melanoma
# SK-MEL-5 melanoma = tested on: SK-MEL-5 melanoma
# SN12C renal = tested on: SN12C renal
# SNB-19 CNS = tested on: SNB-19 CNS
# SNB-75 CNS = tested on: SNB-75 CNS
# SW-620 colon = tested on: SW-620 colon
# T-47D breast = tested on: T-47D breast
# TK-10 renal = tested on: TK-10 renal
# U251 CNS = tested on: U251 CNS
# UACC-257 melanoma = tested on: UACC-257 melanoma
# UACC-62 melanoma = tested on: UACC-62 melanoma
# UO-31 renal = tested on: UO-31 renal
# HCT-116 colon = tested on: HCT-116 colon
# SK-OV-3 ovarian = tested on: SK-OV-3 ovarian
# SR leukemia = tested on: SR leukemia
# HCC-2998 colon = tested on: HCC-2998 colon
# HL-60(TB) leukemia = tested on: HL-60(TB) leukemia
# K-562 leukemia = tested on: K-562 leukemia
# OVCAR-8 ovarian = tested on: OVCAR-8 ovarian
# RPMI-8226 leukemia = tested on: RPMI-8226 leukemia
smiles,measurement,setting,value
CC[C@@]1(OC(=O)CN)C(=O)OCc2c1cc1n(c2=O)Cc2cc3cc(N)ccc3nc2-1,GI50,786-0 renal,< 10 nM
same,TGI,786-0 renal,40.9 nM
same,GI50,A498 renal,32.2 nM
same,TGI,A498 renal,337 nM
same,GI50,A549 NSCLC,< 17.6 nM
same,TGI,A549 NSCLC,1450 nM
same,GI50,ACHN renal,< 10 nM
same,TGI,ACHN renal,151 nM
same,GI50,BT-549 breast,1300 nM
same,TGI,BT-549 breast,> 100000 nM
same,GI50,CAKI-1 renal,< 10 nM
same,TGI,CAKI-1 renal,39.8 nM
same,GI50,CCRF-CEM leukemia,< 10 nM
same,GI50,COLO 205 colon,287 nM
same,TGI,COLO 205 colon,2220 nM
same,GI50,DU-145 prostate,< 10 nM
same,TGI,DU-145 prostate,> 76500 nM
same,GI50,EKVX NSCLC,465 nM
same,TGI,EKVX NSCLC,> 100000 nM
same,GI50,HCT-15 colon,153 nM
same,TGI,HCT-15 colon,> 20300 nM
same,GI50,HOP-62 NSCLC,< 10 nM
same,TGI,HOP-62 NSCLC,847 nM
same,GI50,HOP-92 NSCLC,< 10 nM
same,TGI,HOP-92 NSCLC,70.5 nM
same,GI50,HS 578T breast,1970 nM
same,TGI,HS 578T breast,> 100000 nM
same,GI50,HT29 colon,127 nM
same,TGI,HT29 colon,> 100000 nM
same,GI50,IGROV1 ovarian,97.4 nM
same,TGI,IGROV1 ovarian,1390 nM
same,GI50,KM12 colon,120 nM
same,TGI,KM12 colon,811 nM
same,GI50,LOX IMVI melanoma,< 10 nM
same,TGI,LOX IMVI melanoma,103 nM
same,GI50,M14 melanoma,< 10 nM
same,TGI,M14 melanoma,122 nM
same,GI50,MALME-3M melanoma,195 nM
same,TGI,MALME-3M melanoma,2520 nM
same,GI50,MCF7 breast,< 10 nM
same,TGI,MCF7 breast,> 100000 nM
same,GI50,MDA-MB-231 breast,769 nM
same,TGI,MDA-MB-231 breast,> 100000 nM
same,GI50,MDA-MB-435,80.2 nM
same,TGI,MDA-MB-435,381 nM
same,GI50,MDA-N,77.2 nM
same,TGI,MDA-N,1090 nM
same,GI50,MOLT-4 leukemia,< 10 nM
same,GI50,NCI-H226 lung,< 15.2 nM
same,TGI,NCI-H226 lung,388 nM
same,GI50,NCI-H23 lung,< 10 nM
same,TGI,NCI-H23 lung,24.6 nM
same,GI50,NCI-H460 lung,< 10 nM
same,GI50,NCI-H522 lung,13.9 nM
same,TGI,NCI-H522 lung,340 nM
same,GI50,NCI/ADR-RES ovarian,< 10.3 nM
same,TGI,NCI/ADR-RES ovarian,125 nM
same,GI50,OVCAR-3 ovarian,181 nM
same,TGI,OVCAR-3 ovarian,848 nM
same,GI50,OVCAR-4 ovarian,363 nM
same,TGI,OVCAR-4 ovarian,2700 nM
same,GI50,OVCAR-5 ovarian,150 nM
same,GI50,PC-3 prostate,71.1 nM
same,TGI,PC-3 prostate,> 100000 nM
same,GI50,RXF 393 renal,44 nM
same,TGI,RXF 393 renal,371 nM
same,GI50,SF-268 CNS,< 10 nM
same,GI50,SF-295 CNS,< 10 nM
same,TGI,SF-295 CNS,> 100000 nM
same,GI50,SF-539 CNS,< 10 nM
same,TGI,SF-539 CNS,12.6 nM
same,GI50,SK-MEL-2 melanoma,< 44.1 nM
same,TGI,SK-MEL-2 melanoma,421 nM
same,GI50,SK-MEL-28 melanoma,753 nM
same,TGI,SK-MEL-28 melanoma,> 100000 nM
same,GI50,SK-MEL-5 melanoma,18.1 nM
same,TGI,SK-MEL-5 melanoma,141 nM
same,GI50,SN12C renal,< 10 nM
same,TGI,SN12C renal,> 100000 nM
same,GI50,SNB-19 CNS,< 10 nM
same,TGI,SNB-19 CNS,> 100000 nM
same,GI50,SNB-75 CNS,< 17 nM
same,GI50,SW-620 colon,23.1 nM
same,TGI,SW-620 colon,> 100000 nM
same,GI50,T-47D breast,< 35.9 nM
same,TGI,T-47D breast,> 100000 nM
same,GI50,TK-10 renal,2190 nM
same,TGI,TK-10 renal,> 100000 nM
same,GI50,U251 CNS,< 10 nM
same,GI50,UACC-257 melanoma,88.7 nM
same,TGI,UACC-257 melanoma,1660 nM
same,GI50,UACC-62 melanoma,< 10 nM
same,TGI,UACC-62 melanoma,99.4 nM
same,GI50,UO-31 renal,< 11.3 nM
O=C1C=CC(=O)c2c(O)c(N3CCSCC3)c(Cl)c(O)c21,TGI,A549 NSCLC,1790 nM
same,TGI,ACHN renal,1480 nM
same,TGI,CAKI-1 renal,1730 nM
same,TGI,DU-145 prostate,2020 nM
same,TGI,HCT-116 colon,1030 nM
same,TGI,HOP-92 NSCLC,2210 nM
same,TGI,HS 578T breast,2180 nM
same,TGI,HT29 colon,1470 nM
same,TGI,IGROV1 ovarian,2000 nM
same,TGI,KM12 colon,1380 nM
same,TGI,LOX IMVI melanoma,362 nM
same,TGI,M14 melanoma,1050 nM
same,TGI,MALME-3M melanoma,1340 nM
same,TGI,MDA-MB-231 breast,1030 nM
same,TGI,MDA-MB-435,1940 nM
same,TGI,MDA-N,1480 nM
same,TGI,MOLT-4 leukemia,3820 nM
same,TGI,NCI-H226 lung,1820 nM
same,TGI,NCI-H23 lung,689 nM
same,TGI,NCI-H460 lung,1710 nM
same,TGI,NCI-H522 lung,1290 nM
same,TGI,OVCAR-4 ovarian,1770 nM
same,TGI,RXF 393 renal,781 nM
same,TGI,SF-268 CNS,1740 nM
same,TGI,SK-MEL-2 melanoma,603 nM
same,TGI,SK-MEL-28 melanoma,2160 nM
same,TGI,SK-MEL-5 melanoma,1690 nM
same,TGI,SK-OV-3 ovarian,4000 nM
same,TGI,SR leukemia,1240 nM
same,TGI,SW-620 colon,548 nM
same,TGI,T-47D breast,2290 nM
same,TGI,TK-10 renal,1560 nM
same,TGI,UACC-257 melanoma,2880 nM
same,TGI,UACC-62 melanoma,1750 nM
same,TGI,UO-31 renal,1810 nM
C=C(CCOC)CCC1CCCCC(=C)C1=O (centres undefined),TGI,786-0 renal,> 100000 nM
same,TGI,A498 renal,> 100000 nM
same,TGI,A549 NSCLC,> 100000 nM
same,TGI,ACHN renal,> 100000 nM
same,TGI,BT-549 breast,> 100000 nM
same,TGI,CAKI-1 renal,> 100000 nM
same,TGI,CCRF-CEM leukemia,> 100000 nM
same,TGI,COLO 205 colon,> 100000 nM
same,TGI,DU-145 prostate,> 100000 nM
same,TGI,EKVX NSCLC,> 100000 nM
same,TGI,HCC-2998 colon,> 100000 nM
same,TGI,HCT-116 colon,> 100000 nM
same,TGI,HCT-15 colon,> 100000 nM
same,TGI,HL-60(TB) leukemia,> 100000 nM
same,TGI,HOP-62 NSCLC,> 100000 nM
same,TGI,HS 578T breast,> 100000 nM
same,TGI,HT29 colon,> 100000 nM
same,TGI,IGROV1 ovarian,> 100000 nM
same,TGI,K-562 leukemia,> 100000 nM
same,TGI,KM12 colon,> 100000 nM
same,TGI,LOX IMVI melanoma,> 100000 nM
same,TGI,M14 melanoma,> 100000 nM
same,TGI,MALME-3M melanoma,> 100000 nM
same,TGI,MCF7 breast,> 100000 nM
same,TGI,MDA-MB-231 breast,> 100000 nM
same,TGI,MDA-MB-435,> 100000 nM
same,TGI,MDA-N,> 100000 nM
same,TGI,MOLT-4 leukemia,> 100000 nM
same,TGI,NCI-H226 lung,> 100000 nM
same,TGI,NCI-H23 lung,> 100000 nM
same,TGI,NCI-H460 lung,> 100000 nM
same,TGI,NCI-H522 lung,> 100000 nM
same,TGI,NCI/ADR-RES ovarian,> 100000 nM
same,TGI,OVCAR-3 ovarian,> 100000 nM
same,TGI,OVCAR-4 ovarian,> 100000 nM
same,TGI,OVCAR-5 ovarian,> 100000 nM
same,TGI,OVCAR-8 ovarian,> 100000 nM
same,TGI,PC-3 prostate,> 100000 nM
same,TGI,RPMI-8226 leukemia,> 100000 nM
same,TGI,RXF 393 renal,> 100000 nM
same,TGI,SF-268 CNS,> 100000 nM
same,TGI,SF-295 CNS,> 100000 nM
same,TGI,SK-MEL-2 melanoma,> 100000 nM
same,TGI,SK-MEL-28 melanoma,> 100000 nM
same,TGI,SK-MEL-5 melanoma,> 100000 nM
same,TGI,SK-OV-3 ovarian,> 100000 nM
same,TGI,SN12C renal,> 100000 nM
same,TGI,SNB-19 CNS,> 100000 nM
same,TGI,SNB-75 CNS,> 100000 nM
same,TGI,SR leukemia,> 100000 nM
same,TGI,SW-620 colon,> 100000 nM
same,TGI,T-47D breast,> 100000 nM
same,TGI,U251 CNS,> 100000 nM
same,TGI,UACC-62 melanoma,> 100000 nM
same,TGI,UO-31 renal,> 100000 nM
